Data taken from US4026888A, “Certain derivatives of particular 3-thiolated cephalosporins” (priority 1976, dated 1977).
In brackets after ≈: the same amount, converted by molar mass. Where two headings read alike, the source gives them in different places.

Legend:
Str. pyogenes A9604 = assay: Antibiotic activity in nutrient broth (MIC); type: cell-based; details: Streptococcus pyogenes, A9604, inoculum 10^-3; 45% AAB + 5% serum + 50% broth; derivatives adjusted for BL-S640 content; read-out: MIC
Source text: (§1) Antibiotic Activity In Nutrient Broth
(§2) * 45% AAB+ 5% serum+ 50% broth listed above.
(§3) ** Dilution of overnight broth culture.
(§4) Antibiotic Spectrum Nutrient Broth
(§5) * 45% AAB + 5% serum + 50% broth
(§6) Antibiotic Spectrum in Nutrient Broth
(§7) *45% AAB + 5% serum + 50% broth listed above.

Str. pneumoniae A9585 = assay: Antibiotic activity in nutrient broth (MIC); type: cell-based; details: Streptococcus pneumoniae, A9585, inoculum 10^-3 dilution of overnight broth culture; 45% AAB + 5% serum + 50% broth; derivatives adjusted for BL-S640 content
Source text: as §1, §2, §3, §4, §5, §6, §7

[1] = Paper chromatography of rat urine for antibiotically active metabolites; type: in vivo; details: IM; rat urine 0-2 and 2-4 hours
Method: Paper chromatograms were run on rat urine collected between 0 and 2 and between 2 and 4 hours following IM administration of BL-S1055 and 640, for the detection of antibiotically active metabolites using descending chromatography with system No. 9 (butyl acetate:n-butanol:glacial acetic acid:H2 O= 80:15:40:24).

S. aureus Smith A9537 = assay: Antibiotic activity in nutrient broth (MIC); type: cell-based; details: derivatives adjusted for BL-S640 content
Source text: as §1, §3, §4, §6

Ent. cloacae A9657 = assay: Antibiotic activity in nutrient broth (MIC); type: cell-based; details: Enterobacter cloacae, A9657, inoculum 10^-4; derivatives adjusted for BL-S640 content; read-out: MIC
Source text: as §1, §3, §4, §6

K. pneumoniae A9977 [2] = assay: Antibiotic activity in nutrient broth (MIC); type: cell-based; details: Klebsiella pneumoniae, inoculum 10^-4, derivatives adjusted for BL-S640 content, read-out: MIC
Source text: as §1, §3, §4, §6

S. aureus BX1633 A9606 = assay: Antibiotic activity in nutrient broth (MIC); type: cell-based; details: Staphylococcus aureus, derivatives adjusted for BL-S640 content, read-out: MIC
Source text: as §1, §3, §4, §6

K. pneumoniae A15130 = assay: Antibiotic activity in nutrient broth (MIC); type: cell-based; details: Klebsiella pneumoniae, A15130, inoculum 10^-4; derivatives adjusted for BL-S640 content; read-out: MIC
Source text: as §1, §3, §4, §6

E. coli A9675 = assay: Antibiotic activity in nutrient broth (MIC); type: cell-based; details: Escherichia coli, A9675, inoculum 10^-4; derivatives adjusted for BL-S640 content; read-out: MIC
Source text: as §1, §3, §4, §6

E. coli Juhl A15119 = assay: Antibiotic activity in nutrient broth (MIC); type: cell-based; details: Escherichia coli, JUHLA15119, inoculum 10^-4; derivatives adjusted for BL-S640 content; read-out: MIC
Source text: as §1, §3, §4, §6

Ent. cloacae A9656 = assay: Antibiotic activity in nutrient broth (MIC); type: cell-based; details: Enterobacter cloacae, A9656, inoculum 10^-4; derivatives adjusted for BL-S640 content
Source text: as §1, §3, §4, §6

Pr. morganii A15153 = assay: Antibiotic activity in nutrient broth (MIC); type: cell-based; details: Morganella morganii, A15153, inoculum 10^-4; derivatives adjusted for BL-S640 content; read-out: MIC
Source text: as §1, §3, §4, §6

Ser. marcescens A20019 = assay: Antibiotic activity in nutrient broth (MIC); type: cell-based; details: derivatives adjusted for BL-S640 content
Source text: as §1, §3, §4, §6

[3] = tested on: S. aureus Meth-Res A15097; assay: Antibiotic activity in nutrient broth (MIC); type: cell-based; details: inoculum 10^-3, Meth-Res, derivatives adjusted for BL-S640 content
Source text: as §1, §3, §4, §6

Sal. enteritidis A9531 = assay: Antibiotic activity in nutrient broth (MIC); type: cell-based; details: Salmonella enterica, ENTERITIDIS, inoculum 10^-4; derivatives adjusted for BL-S640 content; read-out: MIC
Source text: as §1, §3, §4, §6

Pr. mirabilis A9900 = assay: Antibiotic activity in nutrient broth (MIC); type: cell-based; details: Proteus mirabilis, inoculum 10^-4, derivatives adjusted for BL-S640 content
Source text: as §1, §3, §4, §6

Ent. cloacae A9659 = assay: Antibiotic activity in nutrient broth (MIC); type: cell-based; details: Enterobacter cloacae, A9659, inoculum 10^-4; derivatives adjusted for BL-S640 content; read-out: MIC
Source text: as §1, §3, §4, §6

Ps. aeruginosa A9843A = assay: Antibiotic activity in nutrient broth (MIC); type: cell-based; details: Pseudomonas aeruginosa
Source text: as §1, §3, §4, §6

P. mirabilis A9900 [4] = assay: Oral PD50 in mice; type: in vivo; details: mice treated at 1 and 3.5 hours post-challenge; for ED50: Proteus mirabilis, A9900, po, 3.5 h
[5] = Mouse blood levels after intramuscular administration; type: in vivo; details: for concentration at 0.25 h / concentration at 0.5 h / concentration at 1 h / concentration at 1.5 h: mouse, blood, im, 10 mg/kg, IM 10 mg./kg., 0.01% phosphate buffer
Method: Mouse Blood Levels After Intramuscular Administration
of 10 mg./kg. Body Weight
The compounds were dissolved in 0.01% phosphate buffer.
Mouse Blood Levels After IM
Administration of 10 mg./kg. Body Weight
The compounds were prepared in 0.01% phosphate
The compounds were prepared in 0.01% phosphate buffer.

P. mirabilis A9707 = assay: Oral PD50 in mice; type: in vivo; details: Proteus mirabilis, mice treated at 1 and 3.5 hours post-challenge
Method: (§8) Comparative Oral PD50 Values of
(§9) BL-S640 Derivatives in Mice
(§10) *Mice were treated at 1 and 3.5 hours post-challenge.

P. mirabilis A9900 [6] = assay: IM PD50 in mice; type: in vivo; details: Proteus mirabilis
Source text: Comparative IM PD50 Values of
as §9

K. pneumoniae A9977 [7] = assay: Oral PD50 in mice; type: in vivo; details: Klebsiella pneumoniae, A9977, po, 3.5 h, read-out: PD50
Method: as §8, §9, §10

S. pyogenes A9604 = assay: Oral PD50 in mice; type: in vivo; details: Streptococcus pyogenes, mice treated at 1 and 3.5 hours post-challenge
Method: as §8, §9, §10

E. coli A15119 = assay: Oral PD50 in mice; type: in vivo; details: Escherichia coli, A15119, po, 3.5 h, read-out: PD50
Method: as §8, §9, §10

[8] = Staphylococcus aureus, SMITHA9537, inoculum 10^-4, + 50% serum, read-out: MIC
[9] = Staphylococcus aureus, SMITHA9537, inoculum 10^-4, nutrient broth, read-out: MIC
[10] = Serratia marcescens, A20019, inoculum 10^-4
[11] = Staphylococcus aureus, read-out: MIC
[12] = Example 2, 16 or 32 mice, read-out: Blood Levels
[13] = Table III, read-out: Mouse Blood Levels

| SMILES | MIC (Str. pyogenes A9604) [µg/mL] | MIC (Str. pneumoniae A9585) [µg/mL] | Hydrolysis to the parent compound (BL-S640) [1] | MIC (S. aureus Smith A9537; [8]) [µg/mL] | MIC (S. aureus Smith A9537; [9]) [µg/mL] | MIC (Ent. cloacae A9657) [µg/mL] | MIC (K. pneumoniae A9977 [2]) [µg/mL] | MIC (S. aureus BX1633 A9606; BX1633A9606, inoculum 10^-2) [µg/mL] | MIC (S. aureus BX1633 A9606; BX1633A9606, inoculum 10^-3) [µg/mL] | MIC (K. pneumoniae A15130) [µg/mL] | MIC (E. coli A9675) [µg/mL] | MIC (E. coli Juhl A15119) [µg/mL] | MIC (Ent. cloacae A9656) [µg/mL] | MIC (Pr. morganii A15153) [µg/mL] | MIC (Ser. marcescens A20019; [10]) [µg/mL] | MIC [3, 11] [µg/mL] | MIC (Sal. enteritidis A9531) [µg/mL] | MIC (Pr. mirabilis A9900) [µg/mL] | MIC (Ent. cloacae A9659) [µg/mL] | MIC (Ps. aeruginosa A9843A) [µg/mL] | other results |
| --- | --- | --- | --- | --- | --- | --- | --- | --- | --- | --- | --- | --- | --- | --- | --- | --- | --- | --- | --- | --- | --- |
| O=C(O)C1=C(CSc2cnn[nH]2)CS[C@@H]2[C@H](N3C(=O)[C@@H](c4ccc(O)cc4)NC3c3ccc(S(=O)(=O)O)o3)C(=O)N12 (stereo partly shown) [BL-S1027] | 0.03 | 0.03 | complete hydrolysis | 2 | 0.27 (≈ 0.435 µM) | 1 (≈ 1.61 µM) | 0.5 (≈ 0.806 µM) | 4 (≈ 6.44 µM) | 0.5 (≈ 0.806 µM) | 1 (≈ 1.61 µM) | 4 (≈ 6.44 µM) | 1 (≈ 1.61 µM) | > 125 | 32 (≈ 51.6 µM) | > 125 | 4 to 8 (≈ 6.44 to 12.9 µM) | 0.25 (≈ 0.403 µM) | 0.5 (≈ 0.806 µM) | 32 (≈ 51.6 µM) | > 125 | MIC (S. aureus Smith A9537; inoculum 10^-4, nutrient broth): 0.25 µg/mL (≈ 0.403 µM); MIC (Ser. marcescens A20019; inoculum 10^-4): 125 µg/mL (≈ 201 µM); MIC [3]: 4 µg/mL (≈ 6.44 µM); ED50 (P. mirabilis A9900 [4]; oral, read-out: PD50): 6.3 mg/kg; Mouse blood levels, intramuscular, compared with BL-S640 propylene glycol adduct ([5]; intramuscular, in words): approximately equal; concentration at 0.25 h [5, 12]: 15400 ng/mL; concentration at 0.5 h [5, 12]: 15100 ng/mL; concentration at 1 h [5, 12]: 11800 ng/mL; concentration at 1.5 h [5, 12]: 8200 ng/mL; concentration at 0.25 h [5, 13]: 16100 ng/mL; concentration at 0.5 h [5, 13]: 14800 ng/mL; concentration at 1 h [5, 13]: 11900 ng/mL; concentration at 1.5 h [5, 13]: 8000 ng/mL; ED50 (P. mirabilis A9707): 1.8 mg/kg; ED50 (P. mirabilis A9900 [6]): 1.6 mg/kg |
| O=C(O)COc1ccccc1C1N[C@H](c2ccc(O)cc2)C(=O)N1[C@@H]1C(=O)N2C(C(=O)O)=C(CSc3cnn[nH]3)CS[C@H]12 (stereo partly shown) [BL-S1048] | 0.03 | 0.06 | complete hydrolysis | 2 | 0.13 (≈ 0.208 µM) | 0.5 (≈ 0.8 µM) | 0.5 (≈ 0.8 µM) | 2 (≈ 3.2 µM) | 0.25 (≈ 0.4 µM) | 1 (≈ 1.6 µM) | 2 (≈ 3.2 µM) | 0.5 (≈ 0.8 µM) | > 125 | 32 (≈ 51.2 µM) | > 125 | 4 (≈ 6.4 µM) | 0.13 (≈ 0.208 µM) | 0.5 (≈ 0.8 µM) | 32 (≈ 51.2 µM) | > 125 | ED50 (P. mirabilis A9900 [4]; read-out: PD50, oral): 4.7 mg/kg; PD50 (P. mirabilis A9900 [4]; oral): 3.6 mg./kg./treatment; concentration at 0.25 h [5, 12]: 14800 ng/mL; concentration at 0.5 h [5, 12]: 14100 ng/mL; concentration at 1 h [5, 12]: 10300 ng/mL; concentration at 1.5 h [5, 12]: 7000 ng/mL; ED50 (P. mirabilis A9707): 2.4 mg/kg; ED50 (K. pneumoniae A9977 [7]): 0.7 mg/kg; ED50 (S. pyogenes A9604): 0.2 mg/kg; ED50 (E. coli A15119; oral, mice treated at 1 and 3.5 hours post-challenge): 3.1 mg/kg; ED50 (E. coli A15119): 1.6 mg/kg; ED50 (P. mirabilis A9900 [6]): 1.6 mg/kg |
